The record followed here is patent US20240100062A1, “Methods of Treatment With an Iboga Alkaloid” (priority 2022, published 2024).

For series [1], the system named is special operations veterans. The experiment in a line: Clinician rated psychiatric assessments (PTSD, depression, anxiety) overall, Example 1 study. Conditions: following treatment; sustained at one-month follow-up. In kind it is in vivo, human. On the procedure:
The safety and efficacy of ibogaine treatment in combination with a cardioprotective agent was evaluated in subjects with a history of TBI. At baseline, study participants were experiencing clinically significant levels of disability, PTSD, depression, and anxiety. […] Indeed, disability measures continued to improve, and psychiatric symptom remission and response rates one-month post-treatment remained high.
Clinician administered scales included CAPS-5 (Clinician-administered PTSD Scale for DSM-5), which is a gold standard assessment of PTSD symptom severity; MADRS (Montgomery-Asberg Depression Rating Scale), a measure for depressive symptom severity; and Hamilton-Anxiety Rating Scale (HAM-A) (Shear, M. K. et al., Depress. Anxiety 13, 166-178 (2001)) a measure for anxiety symptom severity; SCID-5 (Structured Clinical Interview for DSM-5) Overview for a historical and environmental context of symptom presentation; MINI DSM-5 (Mini International Neuropsychiatric Interview from DSM-5) for a structured psychodiagnostics assessment; BAT-L (Boston Assessment of TBI—Lifetime) for a lifetime history of TBI and blast exposure; and Ohio State University TBI Identification Method (Short Form) for a lifetime history of TBI. MADRS testing provides an indication of depressive symptoms, CAPS-5 provides an indication of PTSD and SIGH-A provides an indication of anxiety. […]

In series [2] the test system is special operations veterans. Put plainly: Neuropsychological battery overall, Example 1 study. In kind it is in vivo, human. The settings on record: post treatment time points. From the text:
A summary of the results is in Table 1 and Table 1-6 of Example 1. […] In Table 1, neuropsychological test scores are represented as a T score (mean of 50, SD of 10). Unless stated otherwise, a higher score represents better performance.
Neuropsychological testing of the enrolled subjects was designed to examine abilities over several domains of cognitive functioning, including estimated intelligence quotient (IQ), verbal fluency, working memory (visual and auditory), long term memory (visual and auditory), processing speed, sustained attention, problem solving, ability to perceive patterns, executive functioning, such as ability to hold and manipulate or update information in the head, inhibition, ability to organize, plan, and develop solutions to problems. In addition, assessments examining cognitive abilities over several domains of functioning were done to evaluate the safety of ibogaine use. […]

In series [3] the test system is special operations veterans. Put plainly: Structural T1w MRI, FreeSurfer regional volume and cortical thickness. In kind it is in vivo, human. On the procedure: Structural imaging of the brain was also conducted on some of the subjects of Example 1. Gray matter constitutes about 40% of the brain and white matter constitutes about 60% of the brain. Gray matter contains most of the brain's neuronal cell nodes, it is fully developed once a person reaches their 20's and interprets sensor information from various parts of the body. White matter is made up of bundles which connect various gray matter areas, it develops throughout the 20's and peaks in middle age, Typical metrics analyzed in anatomical (T1-weighted, “T1w”) imaging include volume and/or shape of nuclei (e.g. caudate), volume and/or shape of ventricles of the brain, and cortical thickness (mm). These metrics can be used to study normal and abnormal neuroanatomy and are primarily used to quantify gray matter. A tool called FreeSurfer was applied to images for a T1w structural analysis (volume, cortical thickness) to adjust for bias, remove non-brain matter, segments by tissue, parcels the brain into standardized regions, and provides measurements of those regions. FreeSurfer measurements of whole brain volume, volume by tissue (gray, white, CSF), estimated intracranial volume (ICV), subcortical gray matter volume, cortical volume by region were done. […] In particular, analysis was done to determine if there was any loss in gray matter volume or cortical thickness, whether there was a loss in white matter volume or an increase in presence of white matter hypotensities.
The fMRI images were also inspected to determine the difference in volume in regional areas of the brain from baseline to one month after treatment. FIG. 8A is a bar graph showing the effect size of a change in volume in 47 brain regions indicated along the x-axis. […] The fMRI images were also inspected for whole brain thickness at baseline and one month after treatment. […] FIG. 8B is a bar graph showing the effect size of a cortical thickness change for the brain regions indicated along the x-axis, from baseline to one month after treatment. […] The right and left parahippocampal gyrus are involved in visuospatial processing, including scene perception, navigation, and emotional contextualization. The left orbitofrontal gyrus is involved in impulse control and reward valuation. The left insular cortex is associated with both the affective-perceptual and cognitive-evaluative forms of empathy, as well as awareness of hunger, pain and fatigue. The left entorhinal cortex is a widespread network hub for memory, navigation, and perception of time.

The subject of series [4] is special operations veterans. More on the design: species or system human. Conditions: in vivo.

Several values for one entry are separate records, joined by “and”; a condition that tells them apart may be missing. Identical values can stand only once.

For `CCC1CC2CC3c4[nH]c5ccc(OC)cc5c4CCN(C2)C13` (stereo not shown) [ibogaine, Ibogaine], the “Cohen's D on clinician rated psychiatric assessments” value in series [1] is given as above 2. In addition, in series [2], the “Declines across performance domains” value is “No declines were noted across any performance domain”. In addition, in series [3] (17 subjects, two-tailed p = 0.0789, left tailed p = 0.9606, right-tailed p = 0.0394), the “White matter hypointensities (corrected for cerebral white matter), baseline vs. one month post treatment” value is “Two-tailed: no significant differences”. Also, the “Subcortical Gray Matter volume, baseline vs. one month post treatment” value in series [3] (17 subjects, two-tailed p = 0.0949, left tailed p = 0.0475, alpha = 0.05) was “Two-tailed: no significant differences”. In addition, the “Total Gray Matter volume, baseline vs. one month post treatment” value in series [3] (17 subjects, two-tailed p = 0.4755, alpha = 0.05) was “Two-tailed: no significant differences”. In addition, the “Cortical Gray Matter volume, baseline vs. one month post treatment” value in series [3] (17 subjects, two-tailed p = 0.4847, alpha = 0.05) is reported as “Two-tailed: no significant differences”. Moreover, in series [3] (47 brain regions (FIG. 8A)), the “Regional brain volume increases, baseline to one month after treatment” value was “Increases in volume were observed in the cerebral white mater (left) and the left ventral DC”. Besides, the “Regional cortical thickness change” value in series [3] (baseline to one month after treatment (FIG. 8B)) was “Increases in cortical thickness one-month after treatment was observed in left entorhinal cortex, left-lateral-orbitofrontal pole, parahippocampal gyrus (bilaterally), left insular cortex, and right-pars triangularis (inferior frontal gyrus)”. In addition, in series [3] (one month after treatment vs baseline, two-tailed p=0.7146, alpha=0.05), the “Left hemisphere mean thickness” value is given as “no significant difference from baseline”. For the same compound, the “Right hemisphere mean thickness” value in series [3] (one month after treatment vs baseline, two-tailed, alpha=0.05) is “no significant difference from baseline”. Moreover, in series [3] (treated subjects, one month after treatment), the “Inspection of brain volume and thickness for damage” value is listed as “no apparent damage to the brain”. In series [4], the “Detection (CPT-3 Detection), D” value turned out to be 0.86; the “Reaction Time (CPT-3 Reaction Time), D” value was 0.52 and 0.29; the “Reaction Time (CPT-3 Reaction Time), mean ± SD” value was 44.1 ± 6.8 T score and 46.4 ± 8.1 T score; the “Slowing of reaction time, D” value is 0.29-0.52. In addition, in series [4], the “Sustained Attention (CPT-3 Hit Reaction Time Block Change), mean ± SD” value is 50.8 ± 7.9 T score and 51.2 ± 7.7 T score.
